Source: patent US9822147B2, “Methods of treating ophthalmic diseases using NPR-B agonists” (priority 2009, dated 2017)
Numbered stars: 1 amine (or outer) side, 2 acyl side, 3 side chain; on linkers, the order of the positions; unused ones are H or OH. Square brackets hold non-standard residues; d marks the D form. Peptide text beside a SMILES is read from it. * marks the point of attachment. Phe(3,4-Cl2) = N[C@@H](Cc1ccc(Cl)c(Cl)c1)C(=O)O; X12 = CC(C)(C)CNC[C@@H](N[*:1])C(=O)[*:2]; X7 = N[C@@H]1CCN([*:1])[C@@H]1C(=O)[*:2]; Pro(4R-NH2) = N[C@H]1CN[C@H](C(=O)O)C1; X9 = CN(C)CC[C@@H](N[*:1])C(=O)[*:2]; dOrn(Me2) = CN(C)CCC[C@@H](N)C(=O)O; X2 = O=C([C@H]1CCCN([*:1])C1)[*:2]; dDap(Me2) = CN(C)C[C@@H](N)C(=O)O; Hyp = O=C(O)[C@@H]1C[C@@H](O)CN1; NHcycloheptyl = C1CCCC(N*)CC1; NMeL = CN[C@@H](CC(C)C)C(=O)O; dOrn = NCCC[C@@H](N)C(=O)O; Octanoyl = CCCCCCCC(=O)*; Thz = O=C(O)[C@@H]1CSCN1

Target: T1, NPR-B (Homo sapiens, UniProt P20594)
T1 construct: a functional assay using endogenously NPR-B expressing GTM-3 cells; endogenous in cells; host or cells: GTM-3 (human glaucoma trabecular meshwork cells)
T1 sequence (P20594 23-1047): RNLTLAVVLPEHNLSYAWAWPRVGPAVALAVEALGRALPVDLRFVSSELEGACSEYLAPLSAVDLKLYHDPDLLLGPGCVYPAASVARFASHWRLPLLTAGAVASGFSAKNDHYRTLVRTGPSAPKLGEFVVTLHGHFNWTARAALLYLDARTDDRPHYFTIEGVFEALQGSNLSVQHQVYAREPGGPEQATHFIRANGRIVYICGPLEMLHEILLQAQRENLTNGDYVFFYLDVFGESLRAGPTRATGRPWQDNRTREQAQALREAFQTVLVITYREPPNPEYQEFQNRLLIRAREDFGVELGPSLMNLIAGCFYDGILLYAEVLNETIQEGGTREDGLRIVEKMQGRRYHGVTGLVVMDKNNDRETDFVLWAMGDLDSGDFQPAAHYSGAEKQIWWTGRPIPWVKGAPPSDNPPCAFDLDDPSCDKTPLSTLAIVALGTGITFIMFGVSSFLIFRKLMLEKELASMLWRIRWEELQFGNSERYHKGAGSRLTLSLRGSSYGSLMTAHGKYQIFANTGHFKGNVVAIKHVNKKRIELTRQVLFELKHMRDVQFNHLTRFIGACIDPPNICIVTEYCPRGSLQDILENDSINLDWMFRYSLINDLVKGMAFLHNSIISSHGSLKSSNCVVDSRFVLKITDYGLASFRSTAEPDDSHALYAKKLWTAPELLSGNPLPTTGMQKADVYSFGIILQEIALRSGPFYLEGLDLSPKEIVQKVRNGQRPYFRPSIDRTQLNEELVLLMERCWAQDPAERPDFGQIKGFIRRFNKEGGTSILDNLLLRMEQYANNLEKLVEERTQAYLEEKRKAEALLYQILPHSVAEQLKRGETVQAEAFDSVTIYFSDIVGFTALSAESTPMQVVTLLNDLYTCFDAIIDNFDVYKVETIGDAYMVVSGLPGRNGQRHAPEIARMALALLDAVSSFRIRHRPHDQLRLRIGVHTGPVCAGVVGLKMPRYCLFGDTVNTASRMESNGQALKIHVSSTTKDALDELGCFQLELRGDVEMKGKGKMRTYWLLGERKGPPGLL
Experiment: NPR-B induced production of cyclic GMP in human glaucoma trabecular meshwork cells (GTM-3)
Format: cell-based
Settings: group by EC50 and Emax (CNP = 100%); Table 4; read-out: Activity (group), NPR-B activation assayed with GTM-3 cells

Row | SMILES | EC50
1 | CCCCCCCC(=O)N1CCCC2(CCN(C(Cc3ccccc3)C(=O)N[C@H](CC(C)C)C(=O)N[C@@H](CC(C)C)C(=O)N3C[C@H](O)C[C@H]3C(=O)N(C)[C@@H](CC(C)C)C(=O)N[C@@H](CC(=O)O)C(=O)N[C@@H](CCCNC(=N)N)C(=O)N[C@H](C(N)=O)[C@@H](C)CC)C2=O)C1 (stereo partly drawn) [JAL-1765-2, (AR-314-87)-leu-Leu-Hyp-Nml-Asp-Arg-Ile-NH2] (HELM PEPTIDE1{[CCCCCCCC(=O)[*:2]].[O=C1N(C(Cc2ccccc2)C(=O)[*:2])CCC12CCCN([*:1])C2].[dL].L.[Hyp].[meL].D.R.I.[am]}$$$$V2.0) | < 1000 nM
2 | CC[C@H](C)[C@H](NC(=O)[C@H](CCCNC(=N)N)NC(=O)[C@H](CC(=O)O)NC(=O)[C@H](CC(C)C)N(C)C(=O)[C@@H]1C[C@@H](O)CN1C(=O)[C@H](CC(C)C)NC(=O)[C@@H](CC(C)C)NC(=O)[C@H](Cc1ccccc1)NC(=O)[C@H]1CCCN(C(=O)CCCc2ccccc2)C1)C(N)=O [JAL-1605, 1319-Sni-Phe-leu-Leu-Hyp-Nml-Asp-Arg-Ile-NH2] (HELM PEPTIDE1{[O=C(CCCc1ccccc1)[*:2]].[O=C([C@H]1CCCN([*:1])C1)[*:2]].F.[dL].L.[Hyp].[meL].D.R.I.[am]}$$$$V2.0) | < 1000 nM
3 | CCCCCCCC(=O)N[C@H](C)C(=O)N[C@@H](Cc1ccccc1)C(=O)N[C@H](CN(C)C)C(=O)N[C@@H](CC(C)C)C(=O)N1C[C@H](N)C[C@H]1C(=O)N(C)[C@@H](CC(C)C)C(=O)N[C@@H](CC(=O)O)C(=O)N1CCC[C@H]1C(=O)N[C@H](C(N)=O)[C@@H](C)CC [JAL-1453, Occ-ala-Phe-dap(Me2)-Leu-Tap-Nml-Asp-Pro-Ile-NH2] (Octanoyl-[dA]F[dDap(Me2)]L[Pro(4R-NH2)][NMeL]DPI-NH2) | < 1000 nM
4 | CCCCCCCC(=O)N1CCC[C@H](C(=O)N[C@@H](Cc2ccccc2)C(=O)N[C@H](CC(C)C)C(=O)N[C@@H](CC(C)C)C(=O)N2C[C@H](O)C[C@H]2C(=O)N(C)[C@@H](CC(C)C)C(=O)N[C@@H](CO)C(=O)N[C@@H](CCCNC(=N)N)C(=O)NC2CCCCCC2)C1 [JAL-1752, Occ-Sni-Phe-leu-Leu-Hyp-Nml-Ser-Arg-Che] (Octanoyl-[X2]F[dL]L[Hyp][NMeL]SR-NHcycloheptyl) | < 1000 nM
5 | CCCCCCCC(=O)N1CCC[C@H](C(=O)N[C@@H](Cc2ccccc2)C(=O)N[C@H](CC(C)C)C(=O)N[C@@H](CC(C)C)C(=O)N2C[C@H](O)C[C@H]2C(=O)N(C)[C@@H](CC(C)C)C(=O)N[C@@H](CC(=O)O)C(=O)N2CSC[C@H]2C(=O)NC2CCCCCC2)C1 [JAL-1638, Occ-Sni-Phe-leu-Leu-Hyp-Nml-Asp-Eaz-Che] (Octanoyl-[X2]F[dL]L[Hyp][NMeL]D[Thz]-NHcycloheptyl) | < 1000 nM
6 | CCCCCCCC(=O)N[C@H](C)C(=O)N[C@@H](Cc1ccccc1)C(=O)N[C@H](CNCC(C)(C)C)C(=O)N[C@@H](CC(C)C)C(=O)N1C[C@H](N)C[C@H]1C(=O)N(C)[C@@H](CC(C)C)C(=O)N[C@@H](CC(=O)O)C(=O)N[C@@H](CCCNC(=N)N)C(=O)N[C@H](C(N)=O)[C@@H](C)CC [JAL-1463, Occ-ala-Phe-dap(1464)-Leu-Tap-Nml-Asp-Arg-Ile-NH2] (Octanoyl-[dA]F[X12]L[Pro(4R-NH2)][NMeL]DRI-NH2) | < 1000 nM
7 | CCCCCCCC(=O)N1CCC[C@H](C(=O)N[C@@H](Cc2ccccc2)C(=O)N[C@H](CC(C)C)C(=O)N[C@@H](CC(C)C)C(=O)N2C[C@H](O)C[C@H]2C(=O)N(C)[C@@H](CC(C)C)C(=O)N[C@@H](CC(=O)O)C(=O)N2CC[C@@H](N)[C@H]2C(=O)NC2CCCCCC2)C1 [JAL-1679, Occ-Sni-Phe-leu-Leu-Hyp-Nml-Asp-Pca-Che] (Octanoyl-[X2]F[dL]L[Hyp][NMeL]D[X7]-NHcycloheptyl) | < 1000 nM
8 | CCCCCCCC(=O)N1CCC[C@H](C(=O)N[C@@H](Cc2ccccc2)C(=O)N[C@H](CCN(C)C)C(=O)N[C@@H](CC(C)C)C(=O)N2C[C@H](O)C[C@H]2C(=O)N(C)[C@@H](CC(C)C)C(=O)N[C@H](C(=O)N[C@@H](CCCNC(=N)N)C(=O)NC2CCCCCC2)C(C)C)C1 [JAL-1784, Occ-Sni-Phe-dab(Me2)-Leu-Hyp-Nml-Val-Arg-Che] (Octanoyl-[X2]F[X9]L[Hyp][NMeL]VR-NHcycloheptyl) | < 1000 nM
9 | CCCCCCCC(=O)N1CCC[C@H](C(=O)N[C@@H](Cc2ccccc2)C(=O)N[C@H](CC(C)C)C(=O)N[C@@H](CC(C)C)C(=O)N2C[C@H](N)C[C@H]2C(=O)N(C)[C@@H](CC(C)C)C(=O)N[C@H](C(=O)N[C@@H](CCCNC(=N)N)C(=O)N[C@H](C(N)=O)[C@@H](C)CC)C(C)C)C1 [JAL-1401, Occ-Sni-Phe-leu-Leu-Tap-Nml-Val-Arg-Ile-NH2] (Octanoyl-[X2]F[dL]L[Pro(4R-NH2)][NMeL]VRI-NH2) | < 1000 nM
10 | CCCCCCCC(=O)N1CCC[C@H](C(=O)N[C@@H](Cc2ccc(Cl)c(Cl)c2)C(=O)N[C@H](CC(C)C)C(=O)N[C@@H](CC(C)C)C(=O)N2C[C@H](O)C[C@H]2C(=O)N(C)[C@@H](CC(C)C)C(=O)N[C@@H](CC(=O)O)C(=O)N2CCC[C@H]2C(=O)NC2CCCCCC2)C1 [JAL-1599, Occ-Sni-Eaa-leu-Leu-Hyp-Nml-Asp-Pro-Che] (Octanoyl-[X2][Phe(3,4-Cl2)][dL]L[Hyp][NMeL]DP-NHcycloheptyl) | < 1000 nM

The next lines start with the values.

Row | EC50 | SMILES
11 | < 1000 nM | CCCCCCCC(=O)N1CCC[C@H](C(=O)N[C@@H](Cc2ccccc2)C(=O)N[C@H](CC(C)C)C(=O)N[C@@H](CC(C)C)C(=O)N2CCC[C@H]2C(=O)N(C)[C@@H](CC(C)C)C(=O)N[C@@H](CC(=O)O)C(=O)N[C@@H](CCCNC(=N)N)C(=O)N[C@H](C(N)=O)[C@@H](C)CC)C1 [JAL-1040, Occ-Sni-Phe-leu-Leu-Pro-Nml-Asp-Arg-Ile-NH2] (HELM PEPTIDE1{[CCCCCCCC(=O)[*:2]].[O=C([C@H]1CCCN([*:1])C1)[*:2]].F.[dL].L.P.[meL].D.R.I.[am]}$$$$V2.0)
12 | < 1000 nM | CCCCCCCC(=O)N1CCCC[C@@H]1C(=O)N[C@@H](Cc1ccccc1)C(=O)N[C@H](CC(C)C)C(=O)N[C@@H](CC(C)C)C(=O)N1C[C@H](O)C[C@H]1C(=O)N[C@@H](CC(C)C)C(=O)N[C@@H](CC(=O)O)C(=O)N[C@@H](CCCNC(=N)N)C(=O)N[C@H](C(N)=O)[C@@H](C)CC [JAL-1054, Occ-pip-Phe-leu-Leu-Hyp-Leu-Asp-Arg-Ile-NH2] (HELM PEPTIDE1{[CCCCCCCC(=O)[*:2]].[O=C([C@H]1CCCCN1[*:1])[*:2]].F.[dL].L.[Hyp].L.D.R.I.[am]}$$$$V2.0)
13 | < 1000 nM | CCCCCCCC(=O)N[C@H](C)C(=O)N[C@@H](Cc1ccccc1)C(=O)N[C@H](CC(C)C)C(=O)N[C@@H](CC(C)C)C(=O)N1CCC[C@H]1C(=O)N(C)[C@@H](CC(C)C)C(=O)N[C@@H](CC(=O)O)C(=O)N[C@@H](CCCNC(=N)N)C(=O)N[C@H](C(N)=O)[C@@H](C)CC [JAL-1039, Occ-ala-Phe-leu-Leu-Pro-Nml-Asp-Arg-Ile-NH2] (HELM PEPTIDE1{[CCCCCCCC(=O)[*:2]].[dA].F.[dL].L.P.[meL].D.R.I.[am]}$$$$V2.0)
14 | < 1000 nM | CCCCCC[C@H](NC(=O)[C@@H]1CCCN1C(=O)[C@@H](N)CCCCN)C(=O)N1CCC[C@H](C(=O)N[C@@H](Cc2ccccc2)C(=O)N[C@H](CC(C)C)C(=O)N[C@@H](CC(C)C)C(=O)N2C[C@H](O)C[C@H]2C(=O)N(C)[C@@H](CC(C)C)C(=O)N[C@@H](CC(=O)O)C(=O)N[C@@H](CCCNC(=N)N)C(=O)N[C@H](C(N)=O)[C@@H](C)CC)C1 [JAL-1900, H-Lys-Pro-Hgl-Sni-Phe-leu-Leu-Hyp-Nml-Asp-Arg-Ile-NH2] (HELM PEPTIDE1{K.P.[CCCCCC[C@H](N[*:1])C(=O)[*:2]].[O=C([C@H]1CCCN([*:1])C1)[*:2]].F.[dL].L.[Hyp].[meL].D.R.I.[am]}$$$$V2.0)
15 | < 1000 nM | CCCCCCCC(=O)N1CCC[C@H](C(=O)N[C@@H](Cc2ccccc2)C(=O)N[C@H](CCCN(C)C)C(=O)N[C@@H](CC(C)C)C(=O)N2C[C@H](N)C[C@H]2C(=O)N(C)[C@@H](CC(C)C)C(=O)N[C@@H](CC(=O)O)C(=O)N[C@@H](CCCNC(=N)N)C(=O)N[C@H](C(N)=O)[C@@H](C)CC)C1 [JAL-1936, Occ-Sni-Phe-orn(Me2)-Leu-Tap-Nml-Asp-Arg-Ile-NH2] (Octanoyl-[X2]F[dOrn(Me2)]L[Pro(4R-NH2)][NMeL]DRI-NH2)
16 | < 1000 nM | CCCCCCCC(=O)N1CCC[C@H](C(=O)N[C@@H](Cc2ccccc2)C(=O)N[C@H](CCCN)C(=O)N[C@@H](CC(C)C)C(=O)N2C[C@H](O)C[C@H]2C(=O)N(C)[C@@H](CC(C)C)C(=O)N[C@@H](CC(=O)O)C(=O)N[C@@H](CCCNC(=N)N)C(=O)N[C@H](C(N)=O)[C@@H](C)CC)C1 [JAL-1265, Occ-Sni-Phe-orn-Leu-Hyp-Nml-Asp-Arg-Ile-NH2] (Octanoyl-[X2]F[dOrn]L[Hyp][NMeL]DRI-NH2)
